Reference: patent US7972793B2, “Methods and compositions for the treatment of psychotic disorders through the identification of the SULT4A1-1 haplotype” (Suregene, LLC, priority 2009, dated 2011)
Marks after values point to notes of the source that are not given here.

Tests used:
[1] = test system: CATIE Caucasian schizophrenia patients; assay: CATIE Phase 1 drug response: change in total PANSS (LOCF), drug switchers, segmented by SULT4A1-1 status; format: in vivo, human; details: for ≦−20% (number of individuals with this percent change in total PANSS; responders) / ≧−20% (number of individuals with this percent change in total PANSS; non-responders): CATIE Caucasians, LOCF
From the text: There are several different metrics for quantifying response in clinical trials of antipsychotic medications. The most commonly used psychometric instrument is the Positive and Negative Syndrome Scale (PANSS), a 30-item semi-quantitative instrument scored by clinical professionals (Kay et al., 1987). The greater the decrease in PANSS score, the better the clinical response. The most direct measure of clinical response is absolute change in PANSS score. In addition to absolute change, the improvement is often reported as a percentage change from baseline PANSS score.
A decrease of at least 20% in total PANSS is one commonly used threshold for response (Leucht et al., 2009).
The design of the CATIE study has been described in detail by others (Lieberman et al., 2005; Stroup et al., 2003). […] A total of 738 subjects consented to provide DNA for genetic study. […] Retrospective genetic analyses, judged to be exempt from human studies requirements by an IRB, were conducted in the current study.
All tested patients were studied using well established clinical endpoints comparing baseline, intermediate, and last observation carried forward (LOCF) for the PANSS scores using CATIE data. LOCF analysis is a commonly used clinical endpoint for clinical trials for neuropsychiatric drugs, with changes in PANSS scores of between negative 20% and negative 30% used as typical endpoints to indicate clinically significant response (Leucht et al., 2009). To remove time on drug as a variable for the CATIE trial, analysis was limited to only those patients who were randomized to a different drug following the initial washout period (drug switchers).
As mentioned previously, the mean change in absolute or percent PANSS provides an important measure of efficacy in patients undergoing antipsychotic treatments. Indeed, many pivotal trials in the psychosis field used absolute and/or percentage change in PANSS Score as the primary endpoint (Leucht et al., 2009). […] Therefore, in addition to examining a categorical definition of clinically significant response, the inventors determined the impact of segmentation by SULT4A1-1 status on the quantitative measure of clinical improvement—delta PANSS.

[2] = test system: CATIE African American schizophrenia patients; assay: CATIE drug response: change in total PANSS (LOCF), segmented by SULT4A1-1 status, African Americans; format: in vivo, human
Description: The design of the CATIE study has been described in detail by others (Lieberman et al., 2005; Stroup et al., 2003). […] A total of 738 subjects consented to provide DNA for genetic study. […] Retrospective genetic analyses, judged to be exempt from human studies requirements by an IRB, were conducted in the current study. All tested patients were studied using well established clinical endpoints comparing baseline, intermediate, and last observation carried forward (LOCF) for the PANSS scores using CATIE data. […] To remove time on drug as a variable for the CATIE trial, analysis was limited to only those patients who were randomized to a different drug following the initial washout period (drug switchers).

[3] = test system: CATIE Caucasian schizophrenia patients; assay: Time to discontinuation for all causes in the CATIE study; format: in vivo, human; details: SULT4A1-1 Negative
From the text: The primary endpoint for the CATIE study was time to discontinuation for all causes (Lieberman et al., 2005). Thus the inventors evaluated the effect of SULT41-1 status on this important parameter.

CATIE Caucasian subjects = assay: Rate of hospitalization due to exacerbation of psychosis in CATIE by SULT4A1-1 status; format: in vivo, human; details: CATIE Phases 1, 2 and/or 3
From the text: For this analysis, the inventors assigned a dichotomous value (positive or negative) for hospitalization status to subjects in each phase of the trial based on only the first hospitalization event for a given patient in that phase.

CATIE patients = assay: Kaplan-Meier survival (no hospitalization event) analysis, SULT4A1-1 negative vs positive; format: in vivo, human; details: FIG. 8
Description: A Kaplan-Meier survival analysis was performed to determine whether there was a difference between the survival (hospitalization) rates for the SULT4A1-1 negative and SULT4A1-1 positive patient populations treated with each of the atypical antipsychotics. Survival plots model the fraction of the population that survived (i.e., no hospitalization event) as a function of time.

[4] = test system: patients, populations not segmented by SULT4A1-1 status; details: meta-analysis, Leucht et al. (2009); negative = greater reduction in PANSS; cited from earlier work
[5] = test system: patients, unsegmented populations; details: first generation antipsychotics; Davis et al. (2003); cited from earlier work
[6] = test system: patients, unsegmented populations; details: Meta-analysis, Leucht et al. (2009); cited from earlier work
[7] = Table 16, 20% decrease in PANSS threshold, SULT4A1-1 positive group (sign not given)

OCCOCCN1CCN(C2=Nc3ccccc3Sc3ccccc32)CC1 [Quetiapine]
Mean Difference in Total PANSS Score, Olanzapine vs. labelled drug ([1]; CATIE SULT4A1-1 −): −3.8
Mean Difference in Total PANSS Score, Olanzapine vs. labelled drug ([1]; CATIE unsegmented): −6.2
≦−20% (number of individuals with this percent change in total PANSS; responders) ([1]; SULT4A1-1 Negative): 13
≧−20% (number of individuals with this percent change in total PANSS; non-responders) ([1]; SULT4A1-1 Negative): 50
≦−20% (number of individuals with this percent change in total PANSS; responders) ([1]; SULT4A1-1 Positive): 7
≧−20% (number of individuals with this percent change in total PANSS; non-responders) ([1]; SULT4A1-1 Positive): 11
Non Responder (number) [1, 7]: 11
Responder (number) [1, 7]: 7
≦−20% (number of individuals; responders) ([2]; SULT4A1-1 Negative): 9
≧−20% (number of individuals; non-responders) ([2]; SULT4A1-1 Negative): 25
≦−20% (number of individuals; responders) ([2]; SULT4A1-1 Positive): 2
≧−20% (number of individuals; non-responders) ([2]; SULT4A1-1 Positive): 4
Time to discontinuation, mean time in months [3]: 8.6*** Months
HOSP (number of subjects hospitalized) (CATIE Caucasian subjects; SULT4A1-1 Positive): 1
HOSP (rate of hospitalization) (CATIE Caucasian subjects; SULT4A1-1 Positive): (2.9%)
HOSP (number of subjects hospitalized) (CATIE Caucasian subjects; SULT4A1-1 negative): 24
HOSP (rate of hospitalization) (CATIE Caucasian subjects; SULT4A1-1 negative): (19.5%)
HOSP (number of subjects hospitalized) (CATIE Caucasian subjects; Unsegmented): 25
Difference between survival (no hospitalization) rates of SULT4A1-1 negative and SULT4A1-1 positive patients (CATIE patients): significant difference
Effect Size vs. Placebo [4]: −0.42
Effect Size vs. FGA [5]: 0.01
Mean Difference in Total PANSS Score, Olanzapine vs. labelled drug [6]: −3.7
